What all share (type): tissue-based
Assay [1] deals with Transporter (Rattus norvegicus, UniProt Q63380). Kind of assay: Displacement of [3H]nisoxetine from NAT in Sprague-Dawley rat brain after 4 hrs by liquid scintillation analysis. On the technique in general: Displacement assays read how much labelled ligand stays bound in the presence of the test substance.
Assay [2] addresses Sodium-dependent serotonin transporter (Rattus norvegicus, UniProt P31652). Kind of assay: Displacement of [3H]citalopram from SERT in Sprague-Dawley rat brain after 2 hrs by liquid scintillation analysis.
For assay [3], the target named is Sodium-dependent dopamine transporter (Rattus norvegicus, UniProt P23977). Kind of assay: Displacement of [3H]WIN-35428 from DAT in Sprague-Dawley rat brain after 2 hrs by liquid scintillation analysis.

Molecules are shown by their SMILES.

Sequence of Sodium-dependent dopamine transporter (P23977 whole entry): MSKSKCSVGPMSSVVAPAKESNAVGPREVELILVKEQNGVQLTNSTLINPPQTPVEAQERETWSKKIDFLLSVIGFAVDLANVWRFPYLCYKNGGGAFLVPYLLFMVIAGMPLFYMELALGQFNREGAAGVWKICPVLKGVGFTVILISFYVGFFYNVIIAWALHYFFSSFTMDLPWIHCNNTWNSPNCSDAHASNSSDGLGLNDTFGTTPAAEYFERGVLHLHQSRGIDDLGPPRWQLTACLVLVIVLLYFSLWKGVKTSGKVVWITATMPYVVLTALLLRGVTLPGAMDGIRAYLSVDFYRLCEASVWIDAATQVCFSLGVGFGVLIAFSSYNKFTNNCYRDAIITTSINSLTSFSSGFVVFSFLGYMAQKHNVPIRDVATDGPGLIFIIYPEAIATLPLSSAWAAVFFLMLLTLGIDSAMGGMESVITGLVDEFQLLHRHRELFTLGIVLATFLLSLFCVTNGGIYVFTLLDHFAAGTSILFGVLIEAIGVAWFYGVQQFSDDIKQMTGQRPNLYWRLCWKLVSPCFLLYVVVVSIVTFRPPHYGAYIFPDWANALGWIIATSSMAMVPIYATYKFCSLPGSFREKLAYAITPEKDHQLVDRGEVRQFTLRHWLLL
Sequence of Sodium-dependent serotonin transporter (P31652 whole entry): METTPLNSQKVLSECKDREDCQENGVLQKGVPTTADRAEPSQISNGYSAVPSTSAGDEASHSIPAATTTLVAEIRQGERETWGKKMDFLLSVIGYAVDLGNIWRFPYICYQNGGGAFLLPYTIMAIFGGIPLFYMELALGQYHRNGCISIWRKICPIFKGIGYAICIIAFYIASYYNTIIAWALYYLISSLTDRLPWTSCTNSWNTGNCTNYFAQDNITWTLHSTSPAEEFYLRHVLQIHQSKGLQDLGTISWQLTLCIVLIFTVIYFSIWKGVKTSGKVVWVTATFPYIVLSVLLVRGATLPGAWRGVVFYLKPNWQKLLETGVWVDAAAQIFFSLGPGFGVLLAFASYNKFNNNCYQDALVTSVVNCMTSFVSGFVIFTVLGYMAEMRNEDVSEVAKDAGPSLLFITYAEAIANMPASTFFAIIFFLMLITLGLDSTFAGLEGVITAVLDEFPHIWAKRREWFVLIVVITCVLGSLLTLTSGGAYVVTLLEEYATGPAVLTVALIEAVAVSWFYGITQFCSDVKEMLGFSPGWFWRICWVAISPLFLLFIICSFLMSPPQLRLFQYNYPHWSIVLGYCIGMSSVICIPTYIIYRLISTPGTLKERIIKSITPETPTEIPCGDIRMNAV
Sequence of Transporter (Q63380 whole entry): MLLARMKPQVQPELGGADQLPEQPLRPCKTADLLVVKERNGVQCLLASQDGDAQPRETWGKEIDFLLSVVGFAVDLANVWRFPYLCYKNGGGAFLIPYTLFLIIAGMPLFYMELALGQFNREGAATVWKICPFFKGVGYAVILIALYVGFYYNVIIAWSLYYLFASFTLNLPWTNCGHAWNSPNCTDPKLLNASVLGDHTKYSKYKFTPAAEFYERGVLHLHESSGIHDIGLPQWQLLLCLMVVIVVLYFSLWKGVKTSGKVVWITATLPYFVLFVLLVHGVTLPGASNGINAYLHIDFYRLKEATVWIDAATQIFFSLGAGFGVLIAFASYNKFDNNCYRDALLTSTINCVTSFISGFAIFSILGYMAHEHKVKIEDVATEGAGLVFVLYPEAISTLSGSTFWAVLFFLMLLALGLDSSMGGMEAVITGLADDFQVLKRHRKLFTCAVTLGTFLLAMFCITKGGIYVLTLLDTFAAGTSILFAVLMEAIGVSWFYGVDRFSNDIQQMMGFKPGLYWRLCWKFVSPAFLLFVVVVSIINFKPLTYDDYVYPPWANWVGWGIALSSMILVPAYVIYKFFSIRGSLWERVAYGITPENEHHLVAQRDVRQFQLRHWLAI

On to `Ic1cccc(O[C@@H](c2ccccc2)[C@H]2CNCCO2)c1`, for which the Ki (in general, a measure of affinity in units of concentration, obtained from inhibition or displacement) in assay [1] came to 1700 nM; in assay [2], 154 nM; in assay [3], 1900 nM.
In the case of `Ic1ccc(O[C@@H](c2ccccc2)[C@H]2CNCCO2)cc1`, the Ki in assay [1] stood at 1100 nM; in assay [2], 34.5 nM; in assay [3], 2100 nM.
Compound `CCOc1ccccc1O[C@@H](c1ccc(I)cc1)[C@H]1CNCCO1` yielded a Ki in assay [1] of 58.2 nM.
In the case of `Ic1ccccc1O[C@@H](c1ccccc1)[C@H]1CNCCO1`, the figures for the Ki in assay [1], in assay [2] and in assay [3] were 8.4 nM, 51.5 nM and 526 nM, respectively.
As to `Ic1ccccc1O[C@@H](c1ccccc1)[C@@H]1CNCCO1`, in assay [1], the Ki was 0.84 nM.
In assay [1], `CCOc1ccccc1O[C@@H](c1ccc(I)cc1)[C@@H]1CNCCO1` gave a Ki of 53.8 nM.

The values above are taken from ChEMBL document CHEMBL1155325, “Design and synthesis of (2R,3S)-iodoreboxetine analogues for SPECT imaging of the noradrenaline transporter” (Bioorg Med Chem Lett, 2009).
